Reference: patent publication US10959432B2, “Microbiocidal oxadiazole derivatives” (Syngenta Participations AG, priority 2016, dated 2021)

Tests used:
Uromyces viciae-fabae = assay: Fungicidal activity against Uromyces viciae-fabae / field bean / leaf disc preventative (faba-bean rust); assay type: in vivo; settings: foliar, 288 h, 100 ppm in the applied formulation, field bean leaf discs, preventative (inoculated two hours after application), assessed 12 days after application, read-out: disease control compared to untreated control leaf discs
In short: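 Field bean leaf discs on water agar treated with 10 μl compound in acetone plus spreader, then spray-inoculated on the lower surface with Uromyces viciae-fabae spores 2 h later. Incubation at 22 °C, 18 h day, 70% RH; percent disease control versus untreated scored 12 days after application, compounds at 100 ppm.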

[1] = tested on: Puccinia recondita f. sp. tritici; assay: Fungicidal activity against Puccinia recondita f. sp. tritici / wheat / leaf disc preventative (brown rust); assay type: in vivo; settings: foliar, 200 ppm in the applied formulation, wheat leaf segments cv. Kanzler, preventative (inoculated 1 day after application), assessed 7 to 9 days after application, read-out: disease control compared to untreated control leaf disks
In short: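 Wheat cv. Kanzler leaf segments on agar sprayed with formulated compound diluted in water, inoculated with P. recondita spores 1 day later. Incubated at 19C, 75% rh, 12 h light/12 h dark; scored 7 to 9 days after application as percent disease control versus untreated segments. Test rate 200 ppm.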

[2] = tested on: Puccinia recondita f. sp. tritici; assay: Fungicidal activity against Puccinia recondita f. sp. tritici / wheat / leaf disc curative (brown rust); assay type: in vivo; settings: foliar, 200 ppm in the applied formulation, wheat leaf segments cv. Kanzler, curative (applied 1 day after inoculation), assessed 6 to 8 days after application, read-out: disease control compared to untreated control leaf disks
In short: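 Wheat cv. Kanzler leaf segments on agar, spore-inoculated, held dark at 19° C./75% RH; formulated compound in water sprayed 1 day post-inoculation (curative). Incubated 19° C., 75% RH, 12 h light/12 h dark; percent disease control vs untreated scored 6 to 8 days after application.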

[3] = tested on: Glomerella laqenarium (Colletotrichum lagenarium); assay: Fungicidal activity against Glomerella lagenarium (Colletotrichum lagenarium) liquid culture / cucumber / preventative (anthracnose); assay type: cell-based; settings: Colletotrichum orbiculare; 20 ppm in the applied formulation; liquid culture in PDB, 24° C., 3 to 4 days after application; read-out: disease control compared to untreated control (inhibition of growth measured photometrically)
In short: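 Cryostored conidia mixed into potato dextrose broth and added to test compound (from DMSO solution) in microtiter plates. Incubated at 24 °C; growth inhibition read photometrically 3 to 4 days after application, as percent activity versus untreated check.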

Phakopsora pachyrhizi = assay: Fungicidal activity against Phakopsora pachyrhizi / soybean / leaf disc preventative (Asian soybean rust); assay type: in vivo; settings: foliar, 200 ppm in the applied formulation, soybean leaf disks, preventative (inoculated one day after application), assessed 12 to 14 days after application, read-out: disease control compared to untreated control leaf disks
In short: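 Soybean leaf discs on water agar sprayed with formulated compound diluted in water; spore suspension sprayed on lower leaf surface one day later. Incubated 24-36 h dark at 20° C, 75% rh, then 20° C, 12 h light/day, 75% rh. Percent disease control versus untreated scored 12 to 14 days after application.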

CC(C)CNC(=O)c1ccc(-c2noc(C(F)(F)F)n2)cc1F [Compound 3b.5, 2-fluoro-N-isobutyl-4-[5-(trifluoromethyl)-1,2,4-oxadiazol-3-yl]benzamide]
pest or weed control at 100 ppm (Uromyces viciae-fabae): ≥ 80%
pest or weed control at 200 ppm [1]: ≥ 80%
pest or weed control at 200 ppm [2]: ≥ 80%
inhibition at 20 ppm [3]: ≥ 80%
melting point: 126.6 to 128.3 °C
pest or weed control at 200 ppm (Phakopsora pachyrhizi): ≥ 80%

COCCNC(=O)c1ccc(-c2noc(C(F)(F)F)n2)cc1F [Compound 3b.6, 2-fluoro-N-(2-methoxyethyl)-4-[5-(trifluoromethyl)-1,2,4-oxadiazol-3-yl]benzamide]
pest or weed control at 100 ppm (Uromyces viciae-fabae): ≥ 80%
pest or weed control at 200 ppm [1]: ≥ 80%
pest or weed control at 200 ppm [2]: ≥ 80%
inhibition at 20 ppm [3]: ≥ 80%
melting point: 87.6 to 89 °C
pest or weed control at 200 ppm (Phakopsora pachyrhizi): ≥ 80%

C#CC(C)(C)NC(=O)c1ccc(-c2noc(C(F)(F)F)n2)cc1F [Compound 3b.8, N-(1,1-dimethylprop-2-ynyl)-2-fluoro-4-[5-(trifluoromethyl)-1,2,4-oxadiazol-3-yl]benzamide]
pest or weed control at 100 ppm (Uromyces viciae-fabae): ≥ 80%
pest or weed control at 200 ppm [1]: ≥ 80%
pest or weed control at 200 ppm [2]: ≥ 80%
inhibition at 20 ppm [3]: ≥ 80%
melting point: 69.2 to 69.7 °C
pest or weed control at 200 ppm (Phakopsora pachyrhizi): ≥ 80%

Cc1ccccc1CNC(=O)c1ccc(-c2noc(C(F)(F)F)n2)cc1 [Compound 4a.4, N-(o-tolylmethyl)-4-[5-(trifluoromethyl)-1,2,4-oxadiazol-3-yl]benzamide]
pest or weed control at 100 ppm (Uromyces viciae-fabae): ≥ 80%
pest or weed control at 200 ppm [1]: ≥ 80%
pest or weed control at 200 ppm [2]: ≥ 80%
inhibition at 20 ppm [3]: ≥ 80%
melting point: 135 to 141 °C
pest or weed control at 200 ppm (Phakopsora pachyrhizi): ≥ 80%

CC(NC(=O)c1ccc(-c2noc(C(F)(F)F)n2)cc1)c1ccccc1 (stereo not drawn) [Compound 4a.5, N-(1-phenylethyl)-4-[5-(trifluoromethyl)-1,2,4-oxadiazol-3-yl]benzamide]
pest or weed control at 100 ppm (Uromyces viciae-fabae): ≥ 80%
pest or weed control at 200 ppm [1]: ≥ 80%
pest or weed control at 200 ppm [2]: ≥ 80%
inhibition at 20 ppm [3]: ≥ 80%
melting point: 144 to 148 °C
pest or weed control at 200 ppm (Phakopsora pachyrhizi): ≥ 80%

CN(C(=O)c1ccc(-c2noc(C(F)(F)F)n2)cc1)c1ncn[nH]1 [Compound 5a.5, N-methyl-N-(1H-1,2,4-triazol-5-yl)-4-[5-(trifluoromethyl)-1,2,4-oxadiazol-3-yl]benzamide]
pest or weed control at 100 ppm (Uromyces viciae-fabae): ≥ 80%
pest or weed control at 200 ppm [1]: ≥ 80%
pest or weed control at 200 ppm [2]: ≥ 80%
inhibition at 20 ppm [3]: ≥ 80%
melting point: 125 to 128 °C
pest or weed control at 200 ppm (Phakopsora pachyrhizi): ≥ 80%

O=C(NCc1cnc(Cl)s1)c1ccc(-c2noc(C(F)(F)F)n2)cc1F [Compound 5b.14, N-[(2-chlorothiazol-5-yl)methyl]-2-fluoro-4-[5-(trifluoromethyl)-1,2,4-oxadiazol-3-yl]benzamide]
pest or weed control at 100 ppm (Uromyces viciae-fabae): ≥ 80%
pest or weed control at 200 ppm [1]: ≥ 80%
pest or weed control at 200 ppm [2]: ≥ 80%
inhibition at 20 ppm [3]: ≥ 80%
melting point: 127.8 to 130.8 °C
pest or weed control at 200 ppm (Phakopsora pachyrhizi): ≥ 80%

Cc1nc(CN(C)C(=O)c2ccc(-c3noc(C(F)(F)F)n3)cc2F)cs1 [Compound 5b.15, 2-fluoro-N-methyl-N-[(2-methylthiazol-4-yl)methyl]-4-[5-(trifluoromethyl)-1,2,4-oxadiazol-3-yl]benzamide]
pest or weed control at 100 ppm (Uromyces viciae-fabae): ≥ 80%
pest or weed control at 200 ppm [1]: ≥ 80%
pest or weed control at 200 ppm [2]: ≥ 80%
inhibition at 20 ppm [3]: ≥ 80%
melting point: 96.3 to 98.4 °C
pest or weed control at 200 ppm (Phakopsora pachyrhizi): ≥ 80%

N#CC(NC(=O)c1ccc(-c2noc(C(F)(F)F)n2)cc1F)c1cccs1 (stereo not drawn) [Compound 5b.20, N-[cyano(2-thienyl)methyl]-2-fluoro-4-[5-(trifluoromethyl)-1,2,4-oxadiazol-3-yl]benzamide]
pest or weed control at 100 ppm (Uromyces viciae-fabae): ≥ 80%
pest or weed control at 200 ppm [1]: ≥ 80%
pest or weed control at 200 ppm [2]: ≥ 80%
inhibition at 20 ppm [3]: ≥ 80%
melting point: 138.1 to 139.2 °C
pest or weed control at 200 ppm (Phakopsora pachyrhizi): ≥ 80%
